Data: PubChem BioAssay AID330 (DTP/NCI, 2004)
Where “and” joins values, the source holds several entries; their conditions need not be identical. Equal entries are not always repeated. Inconclusive results and toxic doses are left out. How the source made its calls: active means survival T/C of 150% or more; inactive means T/C below 125% in these data.

Tested on: P388 leukemia ip, CD2F1 mice, survival T/C
Test: NCI In Vivo Anticancer Drug Screen. Data for tumor model P388 Leukemia (intraperitoneal) in CD2F1 (CDF1) mice
Conditions: endpoint: median survival time, higher = longer survival
Outline: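 Mice carrying the transplanted tumor received test compound or vehicle. Survival was recorded in each group, and the value is the treated-group measurement divided by that of the vehicle-treated control group.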

[1] = dose: 12.5 mg/kg/injection, schedule: Q01DX005 (ip), vehicle: saline with Tween-80
[2] = dose: 200.0 mg/kg/injection, schedule: Q01DX005 (ip), vehicle: saline with Tween-80
[3] = dose: 50.0 mg/kg/injection, schedule: Q01DX005 (ip), vehicle: saline with Tween-80
[4] = dose: 50.0 mg/kg/injection, schedule: Q01DX009 (ip), vehicle: saline with Tween-80
[5] = dose: 100.0 mg/kg/injection, schedule: Q01DX009 (ip), vehicle: saline with Tween-80
[6] = dose: 200.0 mg/kg/injection, schedule: Q01DX009 (ip), vehicle: saline with Tween-80
[7] = dose: 50.0 mg/kg/injection, schedule: Q01DX009 (ip), vehicle: saline
[8] = dose: 100.0 mg/kg/injection, schedule: Q01DX009 (ip), vehicle: saline
[9] = dose: 200.0 mg/kg/injection, schedule: Q01DX009 (ip), vehicle: saline
[10] = dose: 100.0 mg/kg/injection, schedule: Q01DX001 (ip), vehicle: saline with Tween-80
[11] = dose: 200.0 mg/kg/injection, schedule: Q01DX001 (ip), vehicle: saline with Tween-80
[12] = dose: 50.0 mg/kg/injection, schedule: Q01DX009 (ip), vehicle: Klucel (hydroxypropylcellulose) (HPC)
[13] = dose: 100.0 mg/kg/injection, schedule: Q01DX009 (ip), vehicle: Klucel (hydroxypropylcellulose) (HPC)
[14] = dose: 100.0 mg/kg/injection, schedule: Q04DX002 (ip), vehicle: saline with Tween-80
[15] = dose: 200.0 mg/kg/injection, schedule: Q04DX002 (ip), vehicle: saline with Tween-80
[16] = dose: 400.0 mg/kg/injection, schedule: Q04DX002 (ip), vehicle: saline with Tween-80
[17] = dose: 25.0 mg/kg/injection, schedule: Q01DX009 (ip), vehicle: Klucel (hydroxypropylcellulose) (HPC)
[18] = dose: 60.0 mg/kg/injection, schedule: Q01DX005 (ip), vehicle: saline with Tween-80
[19] = dose: 120.0 mg/kg/injection, schedule: Q01DX005 (ip), vehicle: saline with Tween-80
[20] = dose: 240.0 mg/kg/injection, schedule: Q01DX005 (ip), vehicle: saline with Tween-80

Measured: T/C

OCC1OC(/C(N=Nc2ccccc2)=N\Nc2ccccc2)C(O)C1O (centres undefined)
inactive: dose: 6.25 mg/kg/injection, schedule: Q01DX005 (ip), vehicle: saline with Tween-80 99 % of control | [1] 89 % of control | [2] 97 % of control

COc1ccc(S(=O)(=O)N/N=C/CN(C)C)cc1
inactive: dose: 25.0 mg/kg/injection, schedule: Q01DX005 (ip), vehicle: saline with Tween-80 101 % of control | [3] 101 % of control | dose: 100.0 mg/kg/injection, schedule: Q01DX005 (ip), vehicle: saline with Tween-80 101 % of control | [2] 99 % of control

O=C(O)C(Cl)(c1ccccc1)C(Cl)c1ccccc1 (centres undefined)
inactive: [4] 104 % of control | [5] 95 % of control | [6] 100 % of control

Nc1nccc([N+](=O)[O-])n1
inactive: [7] 97 % of control | [8] 99 % of control | [9] 100 % of control

O=C1C=C(N2CCN(CCO)CC2)C(=O)c2c(N3CCN(CCO)CC3)cc(N3CCN(CCO)CC3)nc21
inactive: dose: 50.0 mg/kg/injection, schedule: Q01DX005 (ip), vehicle: saline 97 % of control | dose: 100.0 mg/kg/injection, schedule: Q01DX005 (ip), vehicle: saline 93 % of control | dose: 200.0 mg/kg/injection, schedule: Q01DX005 (ip), vehicle: saline 93 % of control

COc1cc2c(cc1O)-c1oncc1CCC2
inactive: dose: 100.0 mg/kg/injection, schedule: Q04DX002 (ip), vehicle: saline 94 % of control | dose: 200.0 mg/kg/injection, schedule: Q04DX002 (ip), vehicle: saline 98 % of control | dose: 400.0 mg/kg/injection, schedule: Q04DX002 (ip), vehicle: saline 95 % of control

O=P1(O)CC2=C(CC=CC2)C1
inactive: [4] 98 % of control | [5] 89 % of control | [6] 98 % of control

CC1=C(Cl)C(=N\S(=O)(=O)c2ccccc2)/c2ccccc2/C1=N/S(=O)(=O)c1ccccc1
inactive: [10] 95 % of control | [11] 95 % of control

O=C1C2C3C=CC(C3)C2C(=O)N1CNc1ccc2nc(SC3CCCC3)sc2c1 (centres undefined)
inactive: [12] 91 % of control | [13] 88 % of control

CNC(=O)OCc1c(COC(=O)NC)c(-c2cccs2)n2c1CCC2
inactive: [1] 122 % of control | [3] 104 % of control

CC(C)(C)OP(=S)(OC(C)(C)C)OC(C)(C)C
inactive: [14] 96 % of control | [15] 108 % of control | [16] 106 % of control

O=[N+]([O-])c1cc(S(=O)(=O)O)cc([N+](=O)[O-])c1Cl
inactive: [17] 116 % of control | [12] 114 % of control | [13] 119 % of control

COCCCC12C=C(OC)C(=O)C=C1OC(c1cc(OC)c(OC)c(OC)c1)C2C (centres undefined)
inactive: dose: 8.75 mg/kg/injection, schedule: Q01DX005 (ip), vehicle: Klucel (hydroxypropylcellulose) (HPC) 100 % of control | dose: 17.5 mg/kg/injection, schedule: Q01DX005 (ip), vehicle: Klucel (hydroxypropylcellulose) (HPC) 106 % of control | dose: 35.0 mg/kg/injection, schedule: Q01DX005 (ip), vehicle: Klucel (hydroxypropylcellulose) (HPC) 96 % of control

COc1cc(OC)cc(C(C)(C)C)c1
inactive: [7] 97 % of control | [8] 100 % of control | [9] 107 % of control

CC(=N)C1C(=O)C=C(C)OC1=O (centres undefined)
inactive: [7] 86 % of control | [8] 88 % of control | [9] 88 % of control

CC1=C[C@H]2[C@@]3(O)[C@H](C)[C@@H](OC(=O)/C=C\c4ccccc4)[C@]4(OC(=O)/C=C\c5ccccc5)[C@H]([C@@H]3C=C(COC(=O)/C=C\c3ccccc3)C[C@]2(O)C1=O)C4(C)C
inactive: dose: 0.18 mg/kg/injection, schedule: Q01DX005 (ip), vehicle: saline + alcohol 92 % of control | dose: 0.35 mg/kg/injection, schedule: Q01DX005 (ip), vehicle: saline + alcohol 95 % of control | dose: 0.7 mg/kg/injection, schedule: Q01DX005 (ip), vehicle: saline + alcohol 95 % of control | dose: 1.4 mg/kg/injection, schedule: Q01DX005 (ip), vehicle: saline + alcohol 95 % of control | dose: 2.8 mg/kg/injection, schedule: Q01DX005 (ip), vehicle: saline + alcohol 102 % of control

CCOc1ccc(C[Se][Se]Cc2ccc(OCC)cc2)cc1
inactive: [12] 109 % of control | [13] 91 % of control

NC(=S)N/N=C1/C(=O)N(c2ccccc2)C(=O)C1C(=O)Nc1ccccc1 (centres undefined)
inactive: [10] 100 % of control | [11] 106 % of control | dose: 400.0 mg/kg/injection, schedule: Q01DX001 (ip), vehicle: saline with Tween-80 98 % of control

COc1ccc(C(CNC(=O)Cc2ccc(Oc3cc(CC(=O)NCC(OC)c4ccc(OC)c(OC)c4)ccc3OC)cc2)OC)cc1OC (centres undefined)
inactive: [18] 94 % of control | [19] 86 % of control | [20] 92 % of control

O=CCC1CC2CCCCN2O1 (centres undefined)
inactive: dose: 25.0 mg/kg/injection, schedule: Q04DX003 (ip), vehicle: saline with Tween-80 102 % of control | dose: 50.0 mg/kg/injection, schedule: Q04DX003 (ip), vehicle: saline with Tween-80 101 % of control | dose: 100.0 mg/kg/injection, schedule: Q04DX003 (ip), vehicle: saline with Tween-80 108 % of control

NC(=O)c1cncc(C(=O)O)c1
inactive: dose: 50.0 mg/kg/injection, schedule: Q01DX005 (ip), vehicle: Klucel (hydroxypropylcellulose) (HPC) 106 % of control | dose: 100.0 mg/kg/injection, schedule: Q01DX005 (ip), vehicle: Klucel (hydroxypropylcellulose) (HPC) 101 % of control | dose: 200.0 mg/kg/injection, schedule: Q01DX005 (ip), vehicle: Klucel (hydroxypropylcellulose) (HPC) 100 % of control

O=c1cc(CC(O)c2ccccc2)c2ccccc2[nH]1 (centres undefined)
inactive: [14] 95 % of control | [15] 94 % of control | [16] 91 % of control

CC(C)(Cc1ccccc1)C(=C=C=C=C(c1ccccc1)C(C)(C)Cc1ccccc1)c1ccccc1
inactive: [17] 101 % of control | [12] 99 % of control | [13] 92 % of control

CSc1c2c([nH]c(=O)c1C#N)-c1ccccc1CC2
inactive: dose: 30.0 mg/kg/injection, schedule: Q01DX005 (ip), vehicle: saline with Tween-80 89 % of control | [18] 91 % of control | [19] 95 % of control and 96 % of control | [20] 88 % of control

COC(=O)c1ccccc1NC(Cc1ccccc1)=NC(C)(C)C
inactive: [4] 86 % of control | [5] 99 % of control

S=c1nc[nH]c2c1ncn2CN1CCCCC1
inactive: [4] 118 % of control | dose: 66.0 mg/kg/injection, schedule: Q01DX009 (ip), vehicle: saline sonified 122 % of control | dose: 150.0 mg/kg/injection, schedule: Q01DX009 (ip), vehicle: saline sonified 90 % of control

N=C(N)SCc1ccc([N+](=O)[O-])cc1
inactive: [17] 102 % of control | [12] 107 % of control

COc1cc2c(cc1OC)C(N)CCC2 (centres undefined)
inactive: dose: 6.25 mg/kg/injection, schedule: Q01DX009 (ip), vehicle: water 104 % of control | dose: 12.5 mg/kg/injection, schedule: Q01DX009 (ip), vehicle: water 96 % of control | dose: 25.0 mg/kg/injection, schedule: Q01DX009 (ip), vehicle: water 99 % of control | dose: 50.0 mg/kg/injection, schedule: Q01DX009 (ip), vehicle: water 96 % of control | dose: 100.0 mg/kg/injection, schedule: Q01DX009 (ip), vehicle: water 101 % of control
